In patent publication US8466089B2, “Pyrazole compounds, process for their production and herbicides containing them” (Ishihara Sangyo Kaisha, Ltd., priority 2008, dated 2013):

Assays:
Type in all cases: in vivo
[1] = tested on: wheat (Triticum spp.); assay: Test Example 1, foliar treatment in upland pots; settings: 20th to 22nd day after application, visual, read-out: Growth inhibition rate (%) Wheat
[2] = tested on: velvetleaf (Abutilon theophrasti MEDIC.); assay: Test Example 1, foliar treatment in upland pots; settings: 20th to 22nd day after application, visual, read-out: Growth inhibition rate (%) Velvetleaf
[3] = tested on: rice (Oryza sativa L.); assay: Test Example 1, foliar treatment in upland pots; settings: 20th to 22nd day after application, visual, read-out: Growth inhibition rate (%) Rice
In short: (§1)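 Sow seeds in upland field soil; grow to set leaf stage (soybean primary leaf–0.3, corn 2.0–3.3, green foxtail 1.5–3.0, rice 1.2–2.5); spray foliage with formulation diluted to 500 L/ha water containing 0.1 vol% spreader at prescribed a.i. rate; score inhibition % at days 20–22.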

[4] = tested on: redroot pigweed (Amaranthus retroflexus L.); assay: Test Example 1, foliar treatment in upland pots; settings: 20th to 22nd day after application, visual, read-out: Growth inhibition rate (%) Redroot pigweed
[5] = tested on: green foxtail (Setaria viridis L.); assay: Test Example 1, foliar treatment in upland pots; settings: 20th to 22nd day after application, visual, read-out: Growth inhibition rate (%) Green foxtail
In short: as §1

[6] = tested on: soybean (Glycine max Merr.); assay: Test Example 1, foliar treatment in upland pots; settings: 20th to 22nd day after application, visual, read-out: Growth inhibition rate (%) Soybean
In short: as §1

[7] = tested on: corn (Zea mays L.); assay: Test Example 1, foliar treatment in upland pots; settings: 20th to 22nd day after application, visual, read-out: Growth inhibition rate (%) Corn
In short: as §1

[8] = tested on: prickly sida (Sida spinosa L.); assay: Test Example 1, foliar treatment in upland pots; settings: 20th to 22nd day after application, visual, read-out: Growth inhibition rate (%) Prickly sida
[9] = tested on: crabgrass (Digitaria sanguinalis L.); assay: Test Example 1, foliar treatment in upland pots; settings: 20th to 22nd day after application, visual, read-out: Growth inhibition rate (%) Crabgrass
[10] = tested on: velvetleaf (Abutilon theophrasti MEDIC.); assay: Test Example 5, foliar treatment versus Reference Compounds; settings: 3.0 to 3.5 leaf stage, 20th day after application, read-out: Growth inhibition rate (%) (20th day after application) Velvet leaf
Description: (§2) Upland field soil was put into a 1/1,000,000 hectare pot, and seeds of various plants were sown. When the respective plants reached predetermined leaf stage ((1) velvetleaf (Abutilon theophrasti MEDIC.): 3.0 to 3.5 leaf stage, (2) giant foxtail (Setaria faberi Herrm.): 4.0 to 4.5 leaf stage, (3) green foxtail (Setaria viridis L.): 5.0 to 5.5 leaf stage, and (4) corn (Zea mays L.): 4.0 to 4.3 leaf stage, a wettable powder of compound No. 2-1 of the above-mentioned present invention, a wettable powder of the above-mentioned Reference Compound 1 and a wettable powder of the above-mentioned Reference Compound 2, prepared in accordance with a conventional preparation method, were weighed so that the active ingredients became the prescribed amounts, and diluted with water in an amount corresponding to 300 liter per 1 hectare (containing 0.5 vol % of an agricultural spreader (Destiny HC: WINFIELD SOLUTIONS by LLC). The spray solutions thus prepared were applied for foliar treatment by a small sprayer.
(§3) On the 7th to 20th day after application, the state of growth of the respective plants was visually observed, and the herbicidal effect was evaluated by a growth inhibition rate (%) of 0 (equivalent to the non-treated area) to 100% (complete kill).

[11] = tested on: green foxtail (Setaria viridis L.); assay: as above; settings: 5.0 to 5.5 leaf stage, 18th day after application, read-out: Growth inhibition rate (%) (18th day after application) Green foxtail
Description: as §2, §3

[12] = tested on: corn (Zea mays L.); assay: as above; settings: 4.0 to 4.3 leaf stage, 7th day after application, read-out: Growth inhibition rate (%) (7th day after application) Corn
Description: as §2, §3

[13] = tested on: rice (Oryza sativa L.) (var.: Nihonbare); assay: Test Example 3, paddy field pot, transplanted rice; settings: applied 4th day after transplantation, 20th to 23rd day after application, read-out: Growth inhibition rate (%) Rice
In short: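 Weeds were sown or planted in flooded paddy-soil pots and treated in the water at 0.5-leaf or primary-leaf stage. Rice (Nihonbare), transplanted at two-leaf stage 3 cm deep, was treated on day 4. Diluted wettable powder or emulsifiable concentrate was used, and growth inhibition (0–100%) was scored visually at 13–17 days for weeds and 20–23 days for rice.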

## CCn1ncc(C(=O)c2ccc(S(C)(=O)=O)c(OCCOC)c2C)c1OC(C)OC(=O)OC (stereo not shown) [Compound No. 2-1, 1-(1-Ethyl-4-(3-(2-methoxyethoxy)-2-methyl-4-(methylsulfonyl)benzoyl)-1H-pyrazol-5-yloxy)ethyl methyl carbonate]
[1]
  inhibition at 7 g/ha: 0%
[2]
  inhibition at 7 g/ha: 100%
[3]
  inhibition at 7 g/ha: 70%
[4]
  inhibition at 7 g/ha: 90%
[5]
  inhibition at 7 g/ha: 100%
[6]
  inhibition at 7 g/ha: 95%
[7]
  inhibition at 7 g/ha: 0%
[8]
  inhibition at 7 g/ha: 60%
[9]
  inhibition at 7 g/ha: 100%
[10]
  inhibition at 3.5 g/ha: 80%
[11]
  inhibition at 7 g/ha: 70%
[12]
  inhibition at 90 g/ha: 0%
[13]
  inhibition at 63 g/ha: 20%
